Assays:
LNCaP α2,3(O)ST = assay: Sialyltransferase assay with LNCaP cell extract; assay type: biochemical, human
In short: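 LNCaP Triton X-100 extract (5 mg protein/ml; 0.1M Tris-maleate pH6.3) incubated with acceptor (typically 7.5 mM) and CMP-[9-3H]NeuAc (typically 0.2 μCi) in 0.1M Na cacodylate pH6.0, 2 h at 37 °C, in duplicate. Radioactive product separated on Dowex-1-formate, Sep-Pak C18 or Biogel P2 and counted by scintillation; blank without acceptor subtracted.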

[1] = target: T1, Rat recombinant α2,3(O)ST (Rattus norvegicus, UniProt Q11205); assay: Sialyltransferase assay with cloned α2,3(O)ST; assay type: biochemical
T1 construct: purchased Calbiochem
T1 sequence (Q11205 1-350): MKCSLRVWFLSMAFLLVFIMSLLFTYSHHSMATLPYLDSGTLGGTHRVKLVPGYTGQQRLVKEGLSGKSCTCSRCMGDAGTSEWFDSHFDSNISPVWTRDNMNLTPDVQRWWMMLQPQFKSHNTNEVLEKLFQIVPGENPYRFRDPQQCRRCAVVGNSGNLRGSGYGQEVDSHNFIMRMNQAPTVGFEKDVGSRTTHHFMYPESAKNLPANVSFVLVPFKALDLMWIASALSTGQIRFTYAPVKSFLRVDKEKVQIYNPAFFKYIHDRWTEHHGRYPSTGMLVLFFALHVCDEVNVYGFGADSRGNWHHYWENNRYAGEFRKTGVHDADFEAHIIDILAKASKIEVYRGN

[2] = target: T1, Rat recombinant α2,3(O)ST; assay: Sialyltransferase assay with cloned α2,3(O)ST; assay type: biochemical; remark: listed apart in the source
[3] = test system: α1,2-L-FT of colon tumor CC9338; assay: α1,2-L-FT assay, colon tumor extract; assay type: biochemical, human; conditions: 1 mg protein of the tissue extract
Protocol: (§1) Colon tumor tissue (CC9338) and breast tumor tissue (BC9400) were obtained during surgical procedures at Roswell Park Cancer Institute and stored frozen within 1 h at −70° C. The tissues were homogenized at 4° C. with 4 volumes of 0.1M Tris Maleate […] 0.1% NaN3 using kinematica. After adjusting the concentration of Triton X-100 to 2%, these homogenates were mixed in the cold room for 1 h using Speci-Mix (Thermolyne) and then centrifuged at 20,000 g for 1 h at 4° C. The clear fat-free supernatant was stored frozen at −20° C. until use. Aliquots of 10 μL from this extract were used in assays run in duplicates. Glycosyltransferase activity in cell lysate was determined by mixing the lysates with acceptor and radiolabeled donor (monosaccharide) under the reaction conditions detailed below, followed by separation of un-reacted donor from the radioactive product using anionic or hydrophobic chromatography. In all cases, the radioactive content of isolated products was determined by using 3a70 scintillation cocktail (Research Products International, Mount Prospect, Ill.) and a Beckman LS6500 scintillation counter. Controls for each assay contained the reaction mixture with everything except the acceptor. All assays were run in duplicate.
(§2) α1,2, α1,6-, α1,3- and α1,4-fucosyltransferase (FT) assay reactions were carried out for 2 h in a reaction mixture containing 50 mM Hepes buffer (pH 7.5), 5 mM MnCl2, 7 mM ATP, 3 mM NaN3, 3 mM synthetic acceptor or 40 μg of fetuin-based acceptor, 0.05 μCi GDP-[14C]Fuc (290 mCi/mmol) and 10 μl cell extract in a total volume of 20 μl [Chandrasekaran et al., 1996]. Sulfotransferase (Sulfo T) assay reactions took 2 h and required a mixture containing 100 mM Tris-maleate (pH 7.2), 5 mM Mg Acetate, 5 mM ATP, 10 mM NaF, 10 mM BAL, 7.5 mM acceptor, 0.5 μCi of [^35S]PAPS (specific activity 2.4 Ci/mmol) and 10 μl of cell extract in a total volume of 30 μl [Chandrasekaran et al., 2004].
(§3) Dowex-1-C1 or Sep-Pak C18 cartridges were used to isolate radiolabeled product from the reaction mixture. For GalT, GalNAc-T and FT assays, the incubation mixture was diluted with 1 ml water and passed through a 1 ml Dowex-1-C1 column [Chandrasekaran et al., 1996; Chandrasekaran et al., 2001]. The column was washed twice with 1 ml of water. The breakthrough and the water wash contained the [^14C]-galactosylated or [^14C]-fucosylated products formed with neutral acceptors. 3 ml of 0.1M NaCl was used to obtain [^14C]-fucosylated products from sialylated acceptors after water elution. For sialytransferase assays, the radioactive products from benzylglycosides were separated by hydrophobic chromatography on Sep-Pak C18 cartridge (Waters, Milford, Mass.), and elution of the product was done with 3 ml methanol [Palcic et al., 1988]. […]

[4] = test system: α1,2-L-FT of breast tumor BC9400; assay: α1,2-L-FT assay, breast tumor extract; assay type: biochemical, human; conditions: 1 mg protein of the tissue extract
Protocol: as §1, §2, §3

[5] = target: T2, Rat recombinant α2,6(N)ST (Rattus norvegicus, UniProt P13721); assay: Sialyltransferase assay with cloned α2,6(N)ST; assay type: biochemical; conditions: Table I; acceptor 7.5 mM; sialylated product quantitated on Biogel P2 column
T2 construct: purchased Calbiochem
T2 sequence (P13721 1-403): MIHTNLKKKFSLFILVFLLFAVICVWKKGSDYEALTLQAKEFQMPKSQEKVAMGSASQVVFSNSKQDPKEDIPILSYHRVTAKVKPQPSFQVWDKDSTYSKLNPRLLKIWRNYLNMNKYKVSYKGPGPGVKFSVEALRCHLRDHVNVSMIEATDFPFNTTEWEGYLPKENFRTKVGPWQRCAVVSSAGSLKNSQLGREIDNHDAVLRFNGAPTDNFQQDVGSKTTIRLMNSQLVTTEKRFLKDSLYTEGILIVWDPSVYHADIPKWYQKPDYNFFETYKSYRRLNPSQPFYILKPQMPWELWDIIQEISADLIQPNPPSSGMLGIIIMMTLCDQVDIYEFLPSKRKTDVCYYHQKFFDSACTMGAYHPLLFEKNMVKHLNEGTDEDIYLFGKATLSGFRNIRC

[6] = Table II, acceptor 0.75 mM, relative to Galβ1,3GalNAcα-O-Bn
[7] = Table II, acceptor 7.5 mM, relative to Galβ1,3GalNAcα-O-Bn

**Q.** How did the “Sialyltransferase activity (%) LNCaP α2,3(O)ST” value (LNCaP α2,3(O)ST; Table I, acceptor 7.5 mM, 100% = 30930 CPM (3-O-MeGalβ1,4GlcNAcβ1,6(Galβ1,3)GalNAcα-O-Bn)) turn out when `C=CCO[C@H]1O[C@H](CO[C@@H]2O[C@H](CO)[C@@H](O)[C@H](O)[C@H]2NC(C)=O)[C@H](O)[C@H](O[C@@H]2O[C@H](CO)[C@H](O)[C@H](O)[C@H]2O)[C@H]1NC(C)=O` [Galβ1,3(GlcNAcβ1,6)GalNAcα-O—Al] was run?
**A.** The value was 60.4%.

**Q.** And the “Sialyltransferase activity (%) Cloned α2,3(O)ST” value ([1]; Table I, acceptor 7.5 mM, 100% = 40560 CPM (3-O-MeGalβ1,4GlcNAcβ1,6(Galβ1,3)GalNAcα-O-Bn))?
**A.** Its value is 120.5^1%.

**Q.** And the “Sialyltransferase activity (%) Cloned α2,3(O)ST” value ([1]; Table IV, compound 7.5 mM, relative to Galβ1,3(GlcNAcβ1,6)GalNAcα-O—Al)?
**A.** The value was 100.0%.

**Q.** And the “Radioactivity incorporated (100% value) Cloned α2,3(O)ST” value ([2]; Table IV, compound 7.5 mM)?
**A.** The value was 29860 CPM.

**Q.** How did the “α1,2-L-FT activity: incorporation of radioactive sugar” value [3] turn out when `OC[C@H]1O[C@@H](OCc2ccccc2)[C@H](O)[C@@H](O)[C@H]1O` [Galβ-O-Bn] was run?
**A.** The value was 20.6 CPM × 10^−3.

**Q.** And the “α1,2-L-FT activity: incorporation of radioactive sugar” value [4]?
**A.** Its value is 9.8 CPM × 10^−3.

**Q.** `CC(=O)N[C@H]1[C@@H](OCc2ccccc2)O[C@H](CO)[C@H](O)[C@@H]1O[C@@H]1O[C@H](CO)[C@H](O)[C@H](O)[C@H]1O` [Galβ1,3GalNAcα-O-Bn] was tested. Which “Radioactivity incorporated (100% value) LNCaP α2,3(O)ST” value (LNCaP α2,3(O)ST; Table II, acceptor 0.75 mM) did it give?
**A.** Its value is “(30490 CPM)”.

**Q.** And the “Sialyltransferase activity (%) LNCaP α2,3(O)ST” value (LNCaP α2,3(O)ST; [6])?
**A.** Its value is 100.0%.

**Q.** What about the “Radioactivity incorporated (100% value) LNCaP α2,3(O)ST” value (LNCaP α2,3(O)ST; Table II, acceptor 7.5 mM) of the same compound?
**A.** The value was “(30600 CPM)”.

**Q.** What about the “Sialyltransferase activity (%) LNCaP α2,3(O)ST” value (LNCaP α2,3(O)ST; [7]) of the same compound?
**A.** Its value is 100.0%.

**Q.** What about the “Sialyltransferase activity (%) Cloned α2,3(O)ST” value [1, 6] of the same compound?
**A.** The value was 100.0^8%.

**Q.** And the “Sialyltransferase activity (%) Cloned α2,3(O)ST” value [1, 7]?
**A.** The value was 100.0^8%.

**Q.** And the “Radioactivity incorporated (100% value) Cloned α2,3(O)ST” value ([2]; Table II, acceptor 0.75 mM)?
**A.** The value was “(42550 CPM)”.

**Q.** What about the “Radioactivity incorporated (100% value) Cloned α2,3(O)ST” value ([2]; Table II, acceptor 7.5 mM) of the same compound?
**A.** The value was “(43600 CPM)”.

**Q.** With `CC(=O)N[C@H]1[C@H](OC[C@H]2O[C@H](OCc3ccccc3)[C@H](NC(C)=O)[C@@H](O[C@@H]3O[C@H](CO)[C@H](O)[C@H](OS(=O)(=O)O)[C@H]3O)[C@H]2O)O[C@H](CO)[C@@H](O[C@@H]2O[C@H](CO)[C@H](O)[C@H](O)[C@H]2O)[C@@H]1O` [Galβ1,4GlcNAcβ1,6(3-O-SulfoGalβ1,3)GalNAcα-O-Bn] as the compound, how does the “Sialyltransferase activity (%) Cloned α2,6(N)ST” value [5] read?
**A.** The value was 127.4^e,18%.

**Q.** And the “Sialyltransferase activity (%) Cloned α2,3(O)ST” value ([2]; Table I, acceptor 7.5 mM, [14C] sialylated product quantitated on Biogel P2 column)?
**A.** Its value is 33.1^e,7%.

Source: patent US20100221763A1, “Specific Acceptors for Transferases to Saccharides and Method for Obtaining and Using Same” (Health Research, Inc, priority 2005, published 2010)
